From ChEMBL document CHEMBL1149923, “Synthesis and activity of enantiopure (S) (m-nitrobenzoyl) alanine, potent kynurenine-3-hydroxylase inhibitor” (Bioorg Med Chem Lett, 1995)

What was measured:
Kynureninase = target: T1, Kynureninase (Rattus norvegicus, UniProt P70712); experiment: Tested for inhibitory activity against kynureninase from rat liver
T1 sequence (P70712 whole entry): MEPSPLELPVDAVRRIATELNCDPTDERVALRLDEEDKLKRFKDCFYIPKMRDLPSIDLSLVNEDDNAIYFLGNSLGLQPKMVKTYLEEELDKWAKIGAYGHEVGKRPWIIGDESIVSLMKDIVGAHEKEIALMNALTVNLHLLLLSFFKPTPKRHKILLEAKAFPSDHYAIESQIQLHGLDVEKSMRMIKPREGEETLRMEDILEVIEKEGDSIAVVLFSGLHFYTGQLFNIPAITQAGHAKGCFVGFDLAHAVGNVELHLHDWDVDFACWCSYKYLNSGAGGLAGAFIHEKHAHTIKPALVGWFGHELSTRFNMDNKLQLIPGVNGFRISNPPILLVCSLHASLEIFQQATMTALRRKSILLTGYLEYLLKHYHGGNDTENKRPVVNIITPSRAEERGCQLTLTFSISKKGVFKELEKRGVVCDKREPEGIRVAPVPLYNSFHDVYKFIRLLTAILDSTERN

[1] = target: Kynurenine 3-monooxygenase (Rattus norvegicus) (UniProt O88867); conditions: 100 uM
Description: Tested for inhibitory activity against kynurenine 3-hydroxylase at 100 uM concentration

[2] = target: Kynurenine 3-monooxygenase (Rattus norvegicus, UniProt O88867); experiment: Tested for inhibitory activity against kynurenine 3-hydroxylase
Chain of Kynurenine 3-monooxygenase (O88867 whole entry): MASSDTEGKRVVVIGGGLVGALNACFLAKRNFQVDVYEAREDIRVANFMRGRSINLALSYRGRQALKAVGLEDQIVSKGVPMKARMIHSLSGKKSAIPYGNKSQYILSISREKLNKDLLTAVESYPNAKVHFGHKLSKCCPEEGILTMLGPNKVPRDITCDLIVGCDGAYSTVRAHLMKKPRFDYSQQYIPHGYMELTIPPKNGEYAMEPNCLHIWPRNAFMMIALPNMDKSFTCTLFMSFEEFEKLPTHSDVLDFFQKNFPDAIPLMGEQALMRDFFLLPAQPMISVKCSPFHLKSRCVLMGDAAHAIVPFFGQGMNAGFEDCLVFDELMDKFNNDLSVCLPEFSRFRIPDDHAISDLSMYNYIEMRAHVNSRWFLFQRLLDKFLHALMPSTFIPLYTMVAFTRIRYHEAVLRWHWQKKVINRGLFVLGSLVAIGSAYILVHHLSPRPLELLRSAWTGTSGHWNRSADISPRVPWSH

Chain of Kynurenine 3-monooxygenase (Rattus norvegicus) (O88867 whole entry, looked up): as the sequence (O88867 whole entry) above

## N[C@H](CC(=O)c1cccc([N+](=O)[O-])c1)C(=O)O
Kynureninase
  IC50: 100 µM
[1]
  inhibition: 60%

## N[C@@H](CC(=O)c1cccc([N+](=O)[O-])c1)C(=O)O
Kynureninase
  IC50: 60 µM
[2]
  IC50: 0.5 µM
